Experimental data from patent EP2072511A1 (INSERM (Institut National de la Santé et de la Recherche …, priority 2007, dated 2009).

Assays:
[1] = target: T1, PrP^Sc from a prion-infected cellular lysate (Mus musculus, UniProt P04925)
[2] = target: PrP^Sc from infected N2a58/22L cells (Mus musculus, UniProt P04925); type: cell-based, murine
[3] = target: T1, PrP^Sc from a prion-infected cellular lysate; assay: biochemical; conditions: 1 h, read-out: amplification of the oligomerization in cellular extract

PrP^Sc from infected N2a58/22L cells, sequence (P04925 23-230 limits assumed): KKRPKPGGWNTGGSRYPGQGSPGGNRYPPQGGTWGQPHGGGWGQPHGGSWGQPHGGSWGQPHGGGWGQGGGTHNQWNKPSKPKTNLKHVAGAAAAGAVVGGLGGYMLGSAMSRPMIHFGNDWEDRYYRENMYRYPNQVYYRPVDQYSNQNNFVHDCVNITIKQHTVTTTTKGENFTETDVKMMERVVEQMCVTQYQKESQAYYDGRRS
T1 sequence (P04925 23-230 limits assumed): as above

Row | SMILES | concentration at which the compound is efficient (oligomerization on cellular extract) [1] [µM] | amount of oligomeric forms observed, compared with compound T 1 or T2 under the same conditions [2] | dosis for which the saturation of the signal (effect of oligomerisation) is achieved [2] [µM] | fold induction at 1 µM [3]
1 | CSc1nccc(-c2ccc(Br)s2)n1 [T1] | ≥ 312 | – | – | –
2 | Nc1nc(N)nc(-c2ccc(-c3ccc(-c4ccc(-c5ccc(-c6nc(N)nc(N)n6)s5)s4)s3)s2)n1 [compound I, 6,6'-(2,2':5',2":5",2'''-quaterthiophene-5,5'''-diyl)bis(1,3,5-triazine-2,4-diamine)] | – | much greater | 2.5 | ≥ 100
